In US20030070184A1, “LIGANDS FOR DISCOIDIN DOMAIN RECEPTOR TYROSINE KINASES AND COMPLEXES THEREOF” (priority 1999, published 2003):
Several values for one entry are separate records, joined by “and”; a condition that tells them apart may be missing. Identical values can stand only once. Entries after “also recorded” stand apart in the source; their conditions may differ. Blank lines part the entries; values can stand above or below the compound they belong to. Where a SMILES comes first, the peptide text is derived from it. [ ]: non-standard residue; d: D form. pY = N[C@@H](Cc1ccc(OP(=O)(O)O)cc1)C(=O)O

Columns and labels:
Shc PTB domain = target: T1, Shc PTB domain (Homo sapiens, UniProt P29353); assay: Surface plasmon resonance competition: GST-Shc PTB domain binding to immobilized middle T antigen phosphopeptide; conditions: IC50, inhibition of binding of the Shc PTB domain to the middle T antigen phosphopeptide, BIAcore, soluble competing phosphopeptide
T1 construct: the PTB domain fusion construct comprises amino acids 1-225 of human p52 Shc; made in house; host or cells: E. coli
T1 sequence (P29353 1-225 isoform P29353-2): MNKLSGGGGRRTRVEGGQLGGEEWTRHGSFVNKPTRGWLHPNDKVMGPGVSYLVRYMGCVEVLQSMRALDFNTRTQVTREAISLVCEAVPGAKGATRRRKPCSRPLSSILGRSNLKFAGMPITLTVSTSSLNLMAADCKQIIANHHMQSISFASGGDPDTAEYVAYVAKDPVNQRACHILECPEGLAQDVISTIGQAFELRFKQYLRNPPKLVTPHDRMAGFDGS
Method: Surface plasmon resonance—experiments were done with a BIAcore instrument (Pharmacia). A phosphopeptide corresponding to the NPXY sequence in the polyomavirus middle T antigen (mT) (LSLLSNPTpYSVNSK) was absorbed to the surface of a biosensor chip. Binding of soluble GST-Shc PTB domain fusion protein to the mT peptide was measured in the presence or absence of competing soluble phosphopeptides based on the sequences around Tyr 513 of DDR1b or Tyr 490 of the NGFR (HIIENPQpYFSD) (21).
Experiments were done with a BIAcore instrument (Pharmacia). A phosphopeptide corresponding to the NPXY sequence in the polyomavirus middle T antigen (LSLLSNPTpYSVMRSK) was absorbed to the surface of a biosensor chip. Binding of soluble GST-Shc PTB domain fusion protein to the middle T peptide was measured in presence or absence of competing soluble phosphopeptides based on the sequences around tyrosine 513 of DDR1b (ALLLSNPApYRLLLA) or tyrosine 490 of the NGF receptor (HIIENPQpYFSD).

DDR1 = target: T2, DDR1 (Homo sapiens, UniProt Q08345); assay: DDR1 tyrosine phosphorylation in transfected 293 cells (anti-phosphotyrosine Western blot); type: cell-based; conditions: 90 min; for ligand activity: induction of DDR1 (DDR1b) tyrosine phosphorylation: soluble agent added to medium of transfected 293 cells, 10 μg/ml
T2 construct: expressed in transfected cells; host or cells: human embryonic kidney 293 cells, CMV-based expression vector
T2 sequence (Q08345 19-913): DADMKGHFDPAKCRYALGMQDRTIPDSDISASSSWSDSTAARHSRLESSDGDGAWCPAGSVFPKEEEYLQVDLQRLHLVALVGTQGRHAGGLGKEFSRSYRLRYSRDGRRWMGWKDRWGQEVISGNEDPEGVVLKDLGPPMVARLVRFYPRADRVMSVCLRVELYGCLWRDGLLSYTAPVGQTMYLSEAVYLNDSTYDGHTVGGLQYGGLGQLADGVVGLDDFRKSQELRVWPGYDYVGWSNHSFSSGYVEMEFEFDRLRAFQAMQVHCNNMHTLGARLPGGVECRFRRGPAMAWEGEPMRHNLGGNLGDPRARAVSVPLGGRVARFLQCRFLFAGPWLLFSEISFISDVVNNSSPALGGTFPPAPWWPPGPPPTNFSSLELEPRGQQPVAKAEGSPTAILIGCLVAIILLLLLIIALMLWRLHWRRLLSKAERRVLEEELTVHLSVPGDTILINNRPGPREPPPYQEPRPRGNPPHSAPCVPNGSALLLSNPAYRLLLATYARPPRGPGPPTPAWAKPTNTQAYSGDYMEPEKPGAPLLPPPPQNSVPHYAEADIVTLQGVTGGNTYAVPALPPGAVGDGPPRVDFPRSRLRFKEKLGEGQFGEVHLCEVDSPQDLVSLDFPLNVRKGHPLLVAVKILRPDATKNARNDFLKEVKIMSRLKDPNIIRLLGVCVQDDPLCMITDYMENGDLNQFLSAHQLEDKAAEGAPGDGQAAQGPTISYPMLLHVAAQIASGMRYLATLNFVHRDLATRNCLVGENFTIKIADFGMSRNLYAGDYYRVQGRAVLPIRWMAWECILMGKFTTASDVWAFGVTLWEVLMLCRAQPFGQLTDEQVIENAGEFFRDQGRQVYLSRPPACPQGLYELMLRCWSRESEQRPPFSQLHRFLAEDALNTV
Method: (§1) Semiconfluent 293 cells were transfected by calcium-phosphate precipitation with a cytomegalovirus-based expression vector. Sixteen hours later, cells were transferred to serum-free media for another 24 h. Cells were stimulated with 10 μg/ml collagen for 90 min and lysed with 1% Triton-X 100, 50 mM HEPES (pH 7.5), 150 mM NaCl, 1.5 mM MgCl2, 5 mM EGTA, 5 mM EDTA, 10% glycerol, 10 mM NaF, 1 mM phenylmethylsulfonyl fluoride (PMSF), 1 mM Na-orthovanadate, 10 μg/ml aprotinin. The cellular lysates were centrifuged 10 min at 4° C. and 13,000 rpm and aliquots of the supernatant were subjected to SDS-PAGE or further analyzed by immunoprecipitation with specific antibodies for 3 h at 4° C. on a rotating wheel. The immunocomplex was washed three times with 20 mM HEPES (pH 7.5), 150 mM NaCl, 0.1% Triton, 10% glycerol and analyzed by SDS-PAGE. Proteins were transferred to nitrocellulose membrane (Schleicher & Schuell) and immunoblotted with antibodies diluted 1:500 in 50 mM Tris (pH 7.5), 150 mM NaCl, 5 mM EDTA, 0.05% gelatin overnight. Western blots were developed using horseradish peroxidase-coupled secondary antibody (Biorad) and enhanced chemiluminescence (Amersham). For reprobing, the membrane was stripped in 70 mM Tris (pH 6.8), 2% SDS, 0.1% P-mercaptoethanol at 55° C. for 30 min. For in vitro kinase assays, immunoprecipitates were washed twice with in 40 mM HEPES (pH 7.5), 20 mM MgCl2, 2 mM MnCl2, 100 μM orthovanadate, 5 μM dATP and incubated with 5 μCi [γ-^32P] ATP at 30° C. for 20 min. The products of the kinase reaction were monitored by SDS-PAGE and autoradiography.
To identify possible sources for the ligand of DDR1, an in vivo screening system was established. Human embryonic kidney fibroblast 293 cells were transiently transfected with expression plasmids coding for DDR1b. Growth-arrested cells were then stimulated with various agents and monitored for receptor activation by anti-phosphotyrosine Western blotting of total cellular lysates. […] The increase of DDR1b autophosphorylation was dependent on the concentration of matrigel added to the cells (FIG. 7A).

DDR receptors = assay: Effect of other agents on DDR activity / collagen-induced DDR tyrosine phosphorylation; type: cell-based; conditions: for effect on DDR activity: collagen-associated molecules
DDR2 = target: T3, DDR2 (Homo sapiens, UniProt Q16832); assay: DDR2 tyrosine phosphorylation in transfected 293 cells (anti-phosphotyrosine Western blot); type: cell-based; conditions: 90 min; for ligand activity: induction of DDR2 tyrosine phosphorylation: soluble agent added to medium of transfected 293 cells, 10 μg/ml
T3 construct: expressed in transfected cells; host or cells: 293 cells, CMV-based expression vector
T3 sequence (Q16832 22-855): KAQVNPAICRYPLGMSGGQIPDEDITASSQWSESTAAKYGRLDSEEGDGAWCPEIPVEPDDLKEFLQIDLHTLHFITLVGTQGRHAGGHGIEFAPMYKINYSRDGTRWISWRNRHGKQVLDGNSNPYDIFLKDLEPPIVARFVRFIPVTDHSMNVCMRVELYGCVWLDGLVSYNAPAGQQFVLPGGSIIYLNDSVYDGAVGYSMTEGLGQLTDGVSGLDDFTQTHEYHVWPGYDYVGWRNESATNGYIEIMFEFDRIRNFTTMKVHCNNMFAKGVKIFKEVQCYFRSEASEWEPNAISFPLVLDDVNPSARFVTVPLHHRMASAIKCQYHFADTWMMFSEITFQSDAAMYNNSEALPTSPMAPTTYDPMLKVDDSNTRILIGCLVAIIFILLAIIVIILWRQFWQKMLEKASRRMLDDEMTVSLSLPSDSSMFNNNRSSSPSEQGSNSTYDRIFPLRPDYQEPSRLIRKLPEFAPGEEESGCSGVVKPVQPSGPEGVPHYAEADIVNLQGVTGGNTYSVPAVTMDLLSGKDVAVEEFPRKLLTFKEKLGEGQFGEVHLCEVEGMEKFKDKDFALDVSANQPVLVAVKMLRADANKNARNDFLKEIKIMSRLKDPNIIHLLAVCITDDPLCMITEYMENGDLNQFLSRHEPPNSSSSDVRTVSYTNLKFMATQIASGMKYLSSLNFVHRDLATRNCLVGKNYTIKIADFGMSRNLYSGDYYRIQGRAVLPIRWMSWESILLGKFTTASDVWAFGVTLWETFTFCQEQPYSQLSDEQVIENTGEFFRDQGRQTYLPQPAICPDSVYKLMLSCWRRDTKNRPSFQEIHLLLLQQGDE
Method: as §1

DDR1b = target: T4, DDR1b (Homo sapiens, UniProt Q08345); assay: Tyrosine phosphorylation of endogenous DDR1b in carcinoma cells (T-47D; A431), immunoprecipitation and anti-phosphotyrosine blot; type: cell-based; conditions: T-47D, 90 min; collagens/gelatin 10 μg/ml, orthovanadate 1 mM
T4 construct: endogenous in cells; host or cells: T-47D human mammary carcinoma cells (A431 also named)
T4 sequence (Q08345 19-913): as the sequence (Q08345 19-913) above
Text: To investigate the effects of collagen on cells that express endogenous DDR tyrosine kinases, the mammary carcinoma cell line T-47D was employed. Previous results have shown that DDR1 is highly expressed in human carcinoma cell lines, in particular, the breast cancer cell lines BT-20, MDA-MB-175 and T-47D (1) (Perez et al., 1996). […] The time course of endogenous DDR1b tyrosine phosphorylation in T-47D cells was even slower than in 293 cells, with maximal activation being achieved only after stimulation for 18 hours.
To further investigate the role of different types of collagen in the activation of DDR1 and DDR2, collagen types I, II, III and V purified from human placenta and collagen type II from bovine tracheal cartilage were obtained. To test their ability to induce receptor tyrosine phosphorylation, 293 cells overexpressing DDR1 or DDR2 were employed. […] The various types of collagen were also tested for their ability to stimulate tyrosine phosphorylation of endogenous DDR1b present in T-47D cells. For this purpose, DDR1b was immunoprecipitated from lysates of stimulated T-47D cells and analyzed by Western blotting with anti-phosphotyrosine antibodies. […] As previously shown, DDR1 tyrosine phosphorylation could also be activated by treating cells with 1 mM orthovanadate, an inhibitor of tyrosine phosphatases. Furthermore, gelatin which contains heat denatured collagen was tested for its capacity to induce DDR1b tyrosine phosphorylation.
Integrins of the type α1β1 and α2β1 have long been known to be receptors for collagen. Therefore, tests were conducted to determine if these integrins are somehow involved in the activation of DDR1b. The mammary carcinoma cell line T-47D, which endogenously expresses the b-isoform of DDR1, was used. Monoclonal antibodies directed against the extracellular domains of integrins can block binding to collagen and therefore signaling of integrins. T-47D cells were treated with antibody A2-IIE10 against α2-integrin and antibody DE9 against β1-integrin (both from Upstate Biotechnology) in the absence or presence of 10 μg/ml collagen type I overnight. DDR1b or Shc were immunoprecipitated from cellular lysates and analyzed by Western blotting with antiphosphotyrosine antibody.
DDR1b and DDR2 were transfected into 293 cells and were stimulated with 10 µg/ml mouse collagen type I for different periods of time. (FIG. 9A and FIG. 9B) Total cellular lysates were probed with antiphosphotyrosine antibody. Maximal activation is seen 90 min after stimulation of DDR1b (FIG. 9A) and DDR2 (FIG. 9B). (FIG. 9C) Human mammary carcinoma T-47D cells were cultivated on 10 cm dishes to confluence and starved in 0.5% serum overnight. Cells were stimulated with collagen type I for various periods of time and lysed. DDR1b was immunoprecipitated from the lysates and analyzed by Western blotting with antiphosphotyrosine antibody. Maximal phosphorylation of DDR1b is seen after stimulation for 18 h. An unidentified, tyrosine phosphorylated protein with an apparent molecular weight of 115 kDa is copurified in the immunoprecipitations. […] Prolonged stimulation with collagen increases the processing of DDR1b in T-47D cells, indicated by an additional 62 kDa band. (FIGS. 9E and 9F) DDR1b was immunoprecipitated from overexpressing 293 cells (E) and T-47D (FIG. 9F) cells and subjected to an in vitro kinase reaction. The incorporation of [^32P]-phosphate is monitored by SDS-PAGE followed by autoradiograpy.

[1] = transfected 293 cells plated on collagen-coated dishes

Compound: CC[C@H](C)[C@H](NC(=O)[C@@H](NC(=O)[C@@H](N)Cc1c[nH]cn1)[C@@H](C)CC)C(=O)N[C@@H](CCC(=O)O)C(=O)N[C@@H](CC(N)=O)C(=O)N1CCC[C@H]1C(=O)N[C@@H](CCC(N)=O)C(=O)N[C@@H](Cc1ccc(OP(=O)(O)O)cc1)C(=O)N[C@@H](Cc1ccccc1)C(=O)N[C@@H](CO)C(=O)N[C@@H](CC(=O)O)C(=O)O [NGF receptor phosphopeptide, HIIENPQpYFSD] (H-HIIENPQ[pY]FSD-OH; N-terminus and C-terminus assumed)
IC50 (Shc PTB domain): ~100 nM and 70 nM

Compound: C[C@@H]1C[C@@H]([C@H](O)CC2CC(=O)NC(=O)C2)C(=O)[C@@H](C)C1 [cycloheximide, reference compound]
effect on ability of collagen to induce DDR tyrosine phosphorylation (DDR receptors; treatment of cells, data not shown): not inhibited

Compound: chondroitin-sulphate A
effect on DDR activity (DDR receptors): no effect

Compound: collagen type II: collagen type II from bovine tracheal cartilage
ligand activity: induction of DDR2 tyrosine phosphorylation (DDR2): moderate activity
tyrosine phosphorylation of endogenous DDR1b in T-47D cells (DDR1b): lower, but still detectable

Compound: [O]=[V]([O-])([O-])[O-] [orthovanadate, reference compound]
tyrosine phosphorylation of endogenous DDR1b in T-47D cells (DDR1b): activated

Compound: heparin
effect on DDR activity (DDR receptors): no effect

More lines, main results first:

ligand activity: induction of DDR1 (DDR1b) tyrosine phosphorylation (DDR1): neither
Compound: fibronectin

DDR2 tyrosine phosphorylation on immobilized collagen (DDR2; [1]): triggered
ligand activity: induction of DDR1 (DDR1b) tyrosine phosphorylation (DDR1): equally good ligands
DDR1b tyrosine phosphorylation on immobilized collagen (DDR1; [1]): further increased
tyrosine phosphorylation of endogenous DDR1b in T-47D cells (DDR1b): lower, but still detectable
Compound: collagen type III: collagen type III purified from human placenta
ligand activity: induction of DDR2 tyrosine phosphorylation (DDR2): highly potent ligands; also recorded: highly activated

tyrosine phosphorylation of endogenous DDR1b in T-47D cells (DDR1b): did not induce an increase
Compound: gelatin

ligand activity: induction of DDR1 (DDR1b) tyrosine phosphorylation (DDR1): neither
Compound: laminin
